The source of these data is patent US5985926A, “Method for inhibiting intracellular viral replication” (Cell Therapeutics, Inc., priority 1997, dated 1999).

Structures are written as SMILES.

For series [1], the system named is 293-EBNA cells. Briefly: Viability of 293-EBNA cells, Alamar Blue. Format: cell-based, human. As for the experimental part: Cell viability was measured by a colorimetric assay that uses Alamar Blue dye (Alamar, Inc.) to report cell proliferation, viability and cytotoxicity. This vital dye indicates cell activity by serving as substrate for mitochrondrial dehydrogenases for the formation of soluble dyes which can be quantitated by determining the difference in absorbance between A570 and A600 using a plate reader.
Cell viability was measured by a […] assay that uses Alamar Blue dye (Alamar, Inc.) to report cell proliferation, viability and cytotoxicity. This vital dye indicates cell activity by serving as substrate for mitochrondrial dehydrogenases for the formation of soluble dyes which can be quantitated by determining the difference in absorbance between A570 and A600 using a plate reader.
This example illustrates that CT2576 suppressed both tat-dependent and TNF-α induced HIV-LTR transcription with an IC50 of approximately 10 μM. Study of the effects of CT2576 on cell toxicity was performed using the Alamar Blue™ dye (Alamar Biosciences) according to the manufacturer's instructions. CT2576 was not toxic to 293-EBNA cells at concentrations up to 35 μM. To show CT2576 can inhibit HIV expression, CT2576 was tested for the ability to block HIV p24 antigen expression in chronically or acutely infected cells. Specifically, CT2576 inhibited the TNF-α and IL-6 induced and the constitutive expression of HIV in the chronically infected U1 cells and in peripheral blood lymphocytes (PBL) freshly infected with a HIV strain from a clinical isolate with an IC50 of approximately 1 μM. Pharmacological inhibition of synthesis of selected PL may therefore be a novel therapeutic approach to suppression of HIV replication.

Series [2] deals with CMV promoter in 293-EBNA cells. Briefly: AP reporter gene expression from CMV promoter, 293-EBNA cells stably transfected with pCMV.AP. Format: cell-based, human cytomegalovirus; human cells. Particulars: for IC50: Homo sapiens, 293-EBNA stably transfected with pCMV.AP (FIG. 6), read-out: IC50, AP reporter gene expression (pCMV.AP); for inhibition of AP expression (CMV promoter): in words. On the procedure: An assay for measuring the anti-viral activity of the compounds involves testing the abilities of the compounds to inhibit gene expression directed by specific viral promoters in cell lines. Specifically, a plasmid construct, pCMV.AP, using the human cytomegalovirus (CMV) enhancer and promoter to direct the expression of the secreted human placental alkaline phosphatase reporter gene were transformed into a tumor cell line (e.g., 293-EBNA cells). The cultured cells were treated with various concentrations of the compounds. The expression of the alkaline phosphatase (AP) reporter gene in the individual cultures can then be measured by following the change in absorbance at A405 of the cell conditioned media in the presence of a suitable substrate (e.g., ortho-nitrophenol phosphate) (Berger et al., Gene 66:1,1988).
The construction of expression vectors for secreted placental alkaline phosphatase (sPAP) was performed by obtaining a mammalian episomal expression vector pBL3, derived from the plasmids pMEP4 and pCEP4 (Invitrogen Corp). Specifically, a 600 bp Spe I--Kpn I fragment spanning the CMV promoter from pCEP4 and a 9500 bp Xba I--Kpn I vector fragment from pMEP4 were isolated and ligated together to form pBL3. Full length sPAP cDNA was amplified by PCR using the plasmid pGEM4Z/SEAP (ATCC) as template with primers 5'-[…]-3' (SEQ ID NO. 1) and 5'-[…]-3' (SEQ ID NO. 2). The PCR product was then digested with Xba I and Sal I and inserted between the Nhe I site and the Xho I site within the multiple cloning region of pBL3. The resulting plasmid was designated as PCMV.AP.
For orientation: A reporter such as luciferase makes a cellular process visible.

The subject of series [3] is 293-EBNA cells.
Series [4] has as its system HIV-LTR promoter (tat transactivation) in 293-EBNA cells. Briefly: AP reporter gene expression from HIV-LTR promoter with tat expression vector, 293-EBNA cells. Format: cell-based, HIV; human cells. The conditions noted are these: 293-EBNA cells, HIV promoter, in words. The text has this: The plasmid construct, pHIV.AP, using the human immunodeficiency virus (HIV) long terminal repeat (LTR) promoter (derived from pU3R-III CAT, Sodroski et al., Science 227:171, 1985) to direct the expression of the sPAP reporter gene, was made by replacing the CMV promoter region from pCMV.AP with the HIV-LTR promoter. PHIV.AP was co-transfected with pSV2tat72, an expression vector for the 72 amino acids tat protein from HIV (Frankel and Pabo, Cell 55:1189-1193, 1988), into 293-EBNA cells (Invitrogen). The cultured cells were treated with various concentrations of the compounds. The expression of the alkaline phosphatase (AP) reporter gene in the individual cultures was measured by following change in absorbance at 405 nm of the cell conditioned media in the presence of a suitable substrate (e.g., ortho-nitrophenol phosphate) (Berger et al., Gene 66:1-10, 1988).
We set up a cell-based system with a cell line cotransfected with an expression plasmid using HIV-1-LTR promoter to direct synthesis of AP reporter gene and an expression plasmid to direct synthesis of the first 72 amino acids of tat protein. Plasmid pREP7 (Invitrogen) was converted to pREP7b by deleting 2,040 bp EBNA-1 coding region and by replacing the pBR322 origin of replication (ori) with the pBluescript KS (Stratagene) ori region. The cDNA for secreted placental alkaline phosphatase (AP) was generated by PCR with the primers (5'-[…]-3')(SEQ ID NO. 3) and (5'-[…]-3') (SEQ ID NO. 4)using the plasmid pGEM-4Z/PLAP489 (American Type Culture Collection) as the template. The 2,000 bp Xba I-Sal I fragment obtained was ligated into a Nhe I/Xho I vector derived from pREP7b to generate the plasmid pREP7b.AP. The 44 bp Xba I-Bgl II fragment from plasmid pMEP4 (Invitrogen)and the 36 bp BamH I-Kpn I fragment from pREP7 were ligated into the Xba I-Kpn I vector fragment from pREP7b.AP to generate the plasmid pMCS.AP. The 720 bp Xho I-Hind III fragment encoding the HIV-LTR promoter from the plasmid pU3R-III-CAT (Sodroski et al., Science 227:171-173, 1985) was ligated into the Xho I-Hind III vector fragment of PMCS.AP to generate the plasmid pHIV.AP. The CMV promoter was derived from the 600 bp Spe I-Asp718 I fragment from pCEP4 (Invitrogen). The 360 bp SV40 early promoter fragments were produced from pSV2tat72 (Frankel et al., Cell 55:1189-1193,1988) by PCR using the primers (5'-[…]-3') (SEQ ID NO. 5) and (5'-[…]-3') (SEQ ID NO. 6). The 480 bp phosphoglycerate kinase (PGK) promoter fragment was amplified from human placental genomic DNA (Promega, Madison, Wis.) based on published sequence (Pfeifer et al., Science 246:810-813, 1990) using the primers (5'-[…]-3') (SEQ ID NO. 7) and (5'-[…]-3') (SEQ ID NO. 8). The above fragments were ligated into the Xba I-Asp718 I vector fragment of pHIV.AP to generate pHIV2.AP, pHIV3.AP, pCMV.AP, pSVE.AP and PPGK.AP respectively. The tat-expression plasmid directed by HIV-LTR promoter, pHIV.tat, was generated by inserting the 400 bp EcoRV-HindIII fragment from pHIV.AP into the PvuII-HindIII vector fragment from pSV2tat72 (Frankel et al., Cell 55:1189-1193, 1988).
Transient transfections with various expression plasmids were performed on a human kidney embryonic cell line 293-EBNA (Invitrogen) using the cationic lipid DOTAP (Boehringer Mannheim). The cell culture media were changed 24 hr after transfection into a serum-free medium AIM V (Life Technologies) before addition of compounds or TNF-α (PeproTech) at the appropriate concentrations. AP activity measured by a colorimetric assay (Berger et al., Gene 66:1-10, 1988) was performed 19-24 hr later.

In series [5] the test system is PA (phosphatidic acid) formation in tat-transfected and tar-transfected cells. Briefly: PA mass / myrPA formation in serum-stimulated EB293, 293tat and 293tar cells. Format: cell-based, human. On the procedure: Transformed and serum-stimulated cells were measured for total PA mass according to the methods described herein. […] The columns in FIG. 18 represent: (1) EB293 cells plus serum, (2) EB293 cells plus serum plus CT3556 (10 μM.), (3) 293tat cells plus serum, (4) 293tat cells plus serum plus CT3556 (10 μM.), (5) 293tar cells plus serum, and (6) 293tar cells plus serum plus CT3556 (10 μM.).
This procedure begins with those cells that would be normally infected with a virus, such as a retrovirus. However, it is not necessary to utilize a cell line containing a retroviral genome, such as U1 cells. In view of the necessity to utilize containment facilities when using an infected cell line, it is preferable to utilize a macrophage cell line that is not infected. Examples of appropriate macrophage cell lines include, U937, THP1, U1, and P288s (available from standard sources, such as ATCC). The cells are stimulated with a stimulant with or without a candidate drug. Examples of stimulants include 3-5% serum, such as fetal calf serum, or tumor necrosis factor (TNF) (e.g., 20 ng/ml) both of which are standard laboratory reagents. After a time course (within 5 minutes, preferably within 1 minute), the cells are immersed in ice cold methanol to stop any cellular signaling reactions.
One must first quantitatively and qualitatively separate PAs from the other lipids found in serum by a chemical extraction of lipids and high performance liquid chromatography (HPLC) to separate and detect PAs. Chemical extraction can be accomplished, for example, by the method of Bligh et al. (Canadian J. Biochem. Physiol. 37:911-917, 1959) or that of Folch et al. (J. Biol. Chem. 226:497-509, 1957). Briefly, the method of Bligh et al. involves an organic extraction of lipids from biological tissue homogenates or fluids. One volume of sample and three volumes of methanol:chloroform (2:1) are vigorously shaken for 2 min. One volume of chloroform is added and then shaken vigorously for 30 sec. One volume of water is added and then shaken vigorously for 30 sec. The mixture is filtered and the upper aqueous layer is discarded. The lower organic layer contains a mixture of lipid classes. The method of Folch et al. involves the extraction of lipids from biological tissue homogenates or body fluids. One volume of sample plus 20 volumes of chloroform:methanol (2:1) are vigorously shaken for 2 min. The mixture is filtered and an amount of 0.1 N KCl equal to 20% of the extraction mixture volume is added and the mixture is shaken vigorously for 2 min. The aqueous and organic phases are allowed to separate. The upper aqueous layer is discarded. The lower organic layer contains a mixture of lipid classes. Free fatty acids and neutral lipids can be separated from phospholipids by normal phase high performance liquid chromatography (HPLC) by modifying the method of Van Kessel et al. (Biochim et Biophys Acta 486:524-530, 1977). This method involves separation of lipids into their major classes by normal phase (silica) high performance liquid chromatography (HPLC). A 5 micron, 25 cm×0.45 cm silica HPLC column is connected to a binary solvent delivery system followed with a UV detector. The lipid sample is injected on the column and a solvent gradient is run at 1.0 ml/min. […]
Transformed and serum-stimulated cells were measured for total PA mass according to the methods described herein. […]

`CCCCCCCCCCNCC(O)CCCCCCCn1c(=O)c2c(ncn2C)n(C)c1=O` (stereo not drawn) [CT2571, 1-(9-decylamino-8-hydroxynonyl)-3,7-dimethylxanthine]: the “cytotoxic effect on 293-EBNA cells (Alamar Blue)” value (“cytotoxic effect” for short) in the series with 293-EBNA cells [1] is reported as “cytotoxic”. For the same compound, the IC50 in series [2] worked out at 8 µM.

In the case of `CCCCCCNCCCC(O)CCCCCCCn1c(=O)c2c(ncn2C)n(C)c1=O` (stereo not drawn) [CT2575, 1-(11-hexylamino-8-hydroxyundecyl)-3,7-dimethylxanthine], the “cytotoxic effect” value in the series with 293-EBNA cells [1] is “no significant cytotoxic effect”. For the same compound, the “effect on cell viability / cytotoxicity” value in the series on 293-EBNA cells [3] was “minimal cytotoxic effects”. Moreover, the “inhibition of AP expression (HIV-LTR promoter)” value in series [4] is “inhibit HIV promoter driven expression”. In series [2], the half-inhibitory concentration (IC50) was found to be 3 µM and the “inhibition of AP expression (CMV promoter)” value is “inhibit CMV promoter driven expression”.

Take `Cn1cnc2c1c(=O)n(CCCCCCCCCC(O)CNc1ccccc1)c(=O)n2C` (stereo not drawn) [CT3528, N-(11-phenylamino-10-hydroxundecyl)-3,7-dimethylxanthine]: in the series with 293-EBNA cells [1], the “cytotoxic effect” value is listed as “no significant cytotoxic effect”. For the same compound, the “inhibition of AP expression (CMV promoter)” value in series [2] is “No appreciable inhibition of AP expression”.

In the case of `CCCCCCCCNCCCCCCCCCCCn1c(=O)c2c(ncn2C)n(C)c1=O` [CT3556, 1-(11-N-octylaminoundecyl)-3,7-dimethylxanthine], the “inhibition of myrPA formation in stimulated cells” value in series [5] (10 μM, tat-transfected cells stimulated with serum) was “inhibited myrPA formation in stimulated cells”. In addition, in series [5] (CT3556 10 μM (FIG. 18)), the “PA mass, 293tar cells plus serum” value is recorded as “significant drop in PA mass” and the “PA mass, 293tat cells plus serum” value was “increase in PA was blocked”.

Broadly, the IC50 is the concentration that inhibits the measured activity by half.
